Active and inactive are the calls of the source.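 Rule for the calls: active = a tumor-causing dose value with its tumor site reported for any sex and species group of a rodent or other animal cancer study; inconclusive = only studies judged inadequate by the national testing program; inactive = tested in at least one study, none positive.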
Experiment: DSSTox (CPDBAS) Carcinogenic Potency Database Summary SingleCellCall Results
Details: animal chronic carcinogenicity bioassays, CPDB summary call
In short: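 Literature-derived summary: each substance receives an overall carcinogenic/non-carcinogenic category drawn from long-term bioassays in rats, mice, hamsters, dogs or primates, using the most positive sex-species experiment and minimal evidence criteria.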
In the case of `C[C@]12CC[C@@H]3c4ccc(OC(=O)Cc5ccc(N(CCCl)CCCl)cc5)cc4CC[C@H]3[C@@H]1CC[C@@H]2OC(=O)Cc1ccc(N(CCCl)CCCl)cc1`, the outcome is reported as “active”. For `CN(CC(O)CO)N=O` (stereo not drawn), the outcome was “active”. With `O=C1C=CC(=O)C=C1` the outcome was “active”. In the case of `O=[As]O`, the outcome is reported as “inactive”. In the case of `CCN(CC)C(=O)c1cccc(C)c1`, the outcome is reported as “inactive”. With `CCNC(=O)N(CCN(C)C)N=O` the outcome was “active”. With `O=[N+]([O-])OCC(CO[N+](=O)[O-])O[N+](=O)[O-]` the outcome was “active”. In the case of `CCN(CC)CCCNC(=O)Cn1ncc(-c2ccccc2)c1-c1ccccc1`, the outcome is reported as “inactive”. For `CCC(C)c1cc([N+](=O)[O-])cc([N+](=O)[O-])c1O` (stereo not drawn), the outcome was “inactive”. For `Clc1ccc2c(c1)C(c1ccccc1)=NCc1nncn1-2`, the outcome was “inactive; active”. For `CC(C)(C)c1cc(C(C)(C)C)c(O)c(C(C)(C)C)c1`, the outcome was “inactive”. In the case of `CN(CCCC(=O)c1cccnc1)N=O`, the outcome is reported as “active”. With `FCCl` the outcome was “active”. With `O` the outcome was “inactive”. With `CCN(C)N=O` the outcome was “active”. For `O=C(O)Cc1c[nH]c2ccccc12`, the outcome was “inactive”. In the case of `COc1ccc(C(c2ccc(OC)cc2)C(Cl)(Cl)Cl)cc1`, the outcome is reported as “inactive; active”. In the case of `CBr`, the outcome is reported as “inactive; active”. For `O=Nc1ccc(Nc2ccccc2)cc1`, the outcome was “active; inactive”. In the case of `CCC1(CCC(C)C)C(=O)NC(=O)NC1=O`, the outcome is reported as “inactive”. In the case of `Cc1ccc(S(=O)(=O)OCCN(C)N=O)cc1`, the outcome is reported as “active”. With `CC(Oc1cc(Cl)ccc1Cl)C(=O)O` (stereo not drawn) the outcome was “inactive”. In the case of `COP(=S)(OC)SCn1nnc2ccccc2c1=O`, the outcome is reported as “inactive”. For `C=CC(=O)O`, the outcome was “inactive; active”. For `Nc1ccc(Nc2ccccc2)cc1`, the outcome was “inactive”. With `O=[N+]([O-])c1ccc(-c2cnc3ccccn23)o1` the outcome was “active”. For `NS(=O)(=O)c1cc2c(cc1Cl)NCNS2(=O)=O`, the outcome was “inactive; active”. With `O=S1OCC2C(CO1)C1(Cl)C(Cl)=C(Cl)C2(Cl)C1(Cl)Cl` (stereo not drawn) the outcome was “inactive; active”. With `c1ccc2sc(SN3CCOCC3)nc2c1` the outcome was “inactive”. For `[O]=[Mo](=[O])=[O]`, the outcome was “active”. For `CC(=O)CN(N=O)C(N)=O`, the outcome was “active”. With `O=NN1CCN(N=O)CC1` the outcome was “active; inactive”. In the case of `CN(C)c1ccccc1`, the outcome is reported as “active”. With `CC(CCl)OC(C)CCl` (stereo not drawn) the outcome was “active”. With `Cc1ccc2ccccc2c1` the outcome was “inactive; active”. For `CCNc1nc(Cl)nc(NCC)n1`, the outcome was “inactive”. With `Oc1cccc2cccnc12.Oc1cccc2cccnc12.[Cu]` the outcome was “inactive”. In the case of `CC(=O)c1ccc(S(=O)(=O)NC(=O)NC2CCCCC2)cc1`, the outcome is reported as “inactive”. In the case of `NCCCCCCCCCCC(=O)O`, the outcome is reported as “active”. With `COc1ccccc1N` the outcome was “active”. In the case of `CN(C)[C@@H]1C(=O)C(C(N)=O)=C(O)[C@@]2(O)C(=O)C3=C(O)c4c(O)cccc4[C@@](C)(O)[C@H]3C[C@@H]12`, the outcome is reported as “inactive”. For `ClC(Cl)=C(Cl)Cl`, the outcome was “active; inactive”. For `O=c1c(O)c(-c2ccc(O)cc2)oc2cc(O)cc(O)c12`, the outcome was “inactive”. For `N#Cc1c(Cl)c(Cl)c(Cl)c(C#N)c1Cl`, the outcome was “active; inactive”. In the case of `OO`, the outcome is reported as “active; inactive”. For `[C-]1=CC=CC1.[C-]1=CC=CC1.[Cl-].[Cl-].[Ti+4]`, the outcome was “inactive; active”. In the case of `CCCCCCCC/C=C\CCCCCCCC(=O)O`, the outcome is reported as “inactive”. With `CCOc1ccc(NC(=O)CC(C)O)cc1` (stereo not drawn) the outcome was “active”. With `CC/C(C)=N/O` the outcome was “active; inactive”. For `C=CCOC(=O)CC(C)C`, the outcome was “active”. In the case of `CCSCCC(N)C(=O)O` (stereo not drawn), the outcome is reported as “active”. For `CC(=O)N(O)c1ccc2c(c1)Cc1ccccc1-2`, the outcome was “active; inactive”. In the case of `Cc1ccccc1`, the outcome is reported as “active”. In the case of `O=[N+]([O-])c1ccc(Cl)cc1`, the outcome is reported as “active”. With `C/C=C/c1ccc(OC)cc1` the outcome was “inactive”. In the case of `CN1C(C(=O)Nc2ccccn2)=C(O)c2ccccc2S1(=O)=O`, the outcome is reported as “inactive”. In the case of `O=C(O[C@@H]1Cc2c(O)cc(O)cc2O[C@@H]1c1cc(O)c(O)c(O)c1)c1cc(O)c(O)c(O)c1`, the outcome is reported as “inactive”. In the case of `C=CCN(N=O)C(N)=O`, the outcome is reported as “active”. In the case of `CC(=O)Nc1ccc(-c2ccc(F)cc2)cc1`, the outcome is reported as “active”. For `COc1cc(/C=C/C(=O)CC(=O)/C=C/c2ccc(O)c(OC)c2)ccc1O`, the outcome was “inactive”. In the case of `C#CC(OC(N)=O)(c1ccccc1)c1ccc(Cl)cc1` (stereo not drawn), the outcome is reported as “active; inactive”. For `CNC(=O)O/N=C(\SC)C(=O)N(C)C`, the outcome was “inactive”. In the case of `CCCCCCCCS(=O)C(C)Cc1ccc2c(c1)OCO2` (stereo not drawn), the outcome is reported as “active”. In the case of `C/C(=C(\CCOC(=O)c1ccccc1)SC(=O)c1ccccc1)N(C=O)Cc1cnc(C)nc1N`, the outcome is reported as “inactive; active”. For `CCC1(CC)C(=O)N=C(O)NC1=O`, the outcome was “active; inactive”. With `C[C@H](CCC(=O)O)[C@H]1CC[C@H]2[C@@H]3[C@H](O)C[C@@H]4C[C@H](O)CC[C@]4(C)[C@H]3CC[C@]12C` the outcome was “inactive”. In the case of `CCOP(=S)(OCC)Oc1nc(Cl)c(Cl)cc1Cl`, the outcome is reported as “inactive”. With `CCN(CC)CCOc1ccc(C(O)(Cc2ccc(OC)cc2)c2ccccc2)cc1` (stereo not drawn) the outcome was “inactive”. For `C[C@@H]1C[C@H](C)CN(S(=O)(=O)c2ccc(Cl)c(C(=O)O)c2)C1`, the outcome was “active”. With `CCN=[N+](C)[O-]` the outcome was “active”. For `CC(=O)Nc1ccc2c(c1)C(=O)c1ccccc1-2`, the outcome was “active”. For `O=C(Nc1cccc2c(=O)cc(-c3nn[nH]n3)oc12)c1ccc(OCCCCc2ccccc2)cc1`, the outcome was “inactive; active”. With `CO[C@@]12[C@H](COC(N)=O)C3=C(C(=O)C(C)=C(N)C3=O)N1C[C@@H]1N[C@@H]12` the outcome was “active”. In the case of `Clc1ccccc1`, the outcome is reported as “active; inactive”. With `Cc1cc(O)c(C(C)(C)C)cc1Sc1cc(C(C)(C)C)c(O)cc1C` the outcome was “inactive”. With `CC(C)CON=O` the outcome was “active”. With `CC1(C)[C@@H](OC2O[C@H](C(=O)O)[C@@H](O)[C@H](O)[C@H]2O[C@H]2O[C@H](C(=O)O)[C@@H](O)[C@H](O)[C@H]2O)CC[C@]2(C)[C@H]3C(=O)C=C4[C@@H]5C[C@@](C)(C(=O)O)CC[C@]5(C)CC[C@@]4(C)[C@]3(C)CC[C@@H]12` (stereo partly drawn) the outcome was “inactive”. For `O=C1NC(c2ccc([N+](=O)[O-])s2)Nc2ccccc21` (stereo not drawn), the outcome was “active”. In the case of `CC(C)=NO`, the outcome is reported as “active”. With `CS(=O)(=O)c1ccc([C@@H](O)[C@@H](CO)NC(=O)C(Cl)Cl)cc1` the outcome was “inactive”. With `CC(O)CNC(=O)N(N=O)C(C)Cl` (stereo not drawn) the outcome was “active”. With `ClC(Cl)Br` the outcome was “active”. For `CCC(C)[N+](=O)[O-]` (stereo not drawn), the outcome was “active”. With `O=C([O-])C(=O)O.O=C([O-])C(=O)O.[K+].[K+].[O]=[Ti]` the outcome was “inactive; active”. In the case of `COc1c(Cl)c(Cl)c([N+](=O)[O-])c(Cl)c1Cl`, the outcome is reported as “inactive”. In the case of `CCOc1ccc2c(c1)C(C)=CC(C)(C)N2`, the outcome is reported as “inactive; active”. With `CN(C)N=Nc1ccccc1` the outcome was “active”. With `CCN(CC)CCOc1ccc(/C(=C(\Cl)c2ccccc2)c2ccccc2)cc1` the outcome was “inactive; active”. For `C=Cc1cccc(C)c1`, the outcome was “inactive; active”. For `O=NN1CCC(O)C1` (stereo not drawn), the outcome was “active”. With `CCOc1ccc(NC(C)=O)cc1[N+](=O)[O-]` the outcome was “active”. For `O=[O+][O-]`, the outcome was “active”. In the case of `BrCCBr`, the outcome is reported as “active; inactive”.
